Assay results published in patent US11945812B2, “Annulated 2-amino-3-cyano thiophenes and derivatives for the treatment of cancer” (Boehringer Ingelheim International GmbH, priority 2020, dated 2024).

Experiments:
NCI-H358 cells = assay: NCI-H358 CTG proliferation assay (120 h) (NSCLC); format: cell-based; settings: Homo sapiens, read-out: IC50 NCl-H358
Method: NCI-H358 CTG Proliferation Assay (120 h) (NSCLC)
NCI-H358 cells (ATCC No. CRL-5807) were dispensed into white bottom opaque 96 well plates (Perkin Elmer cat no. 5680) at a density of 2000 cells per well in 100 μL RPMI-1640 ATCC-Formulation (Gibco # A10491)+10% FCS. Cells were incubated overnight at 37° C. in a humidified tissue culture incubator at 5% CO2. Compounds (10 mM stock in DMSO) were added at logarithmic dose series using the HP Digital Dispenser D300 (Tecan), normalizing for added DMSO. For the TO time point measurement, untreated cells were analyzed at the time of compound addition. Plates were incubated for 120 hours, and cell viability was measured using CellTiter-Glo luminescent cell viability reagent (Promega product code G7570). Viability (stated as percent of control) is defined as relative luminescence units RLU of each well divided by the RLU of cells in DMSO controls. IC50 values were determined from viability measurements by non-linear regression using a four parameter model.

[1] = molecular target: T1, KRAS G12C::SOS1 protein-protein interaction (Homo sapiens, UniProt P01116, C118S/C51S/C80L/G12C); assay: KRAS::SOS1 AlphaScreen binding assay; settings: KRAS G12C::SOS1 AlphaScreen
T1 construct: His6 (N); host or cells: E. coli
Description: KRAS::SOS1 AlphaScreen Binding Assay
Reagents: • GST-tagged SOS1 (564_1049_GST_TEV_ECO) produced in-house • GST-TEV-SOS1 (564-1049) is purchased from Viva Biotech Ltd. • The expression construct of KRAS G12C (amino acids 1-169 of reference sequence P01116-2 (uniprot), with additional mutations: C51S, C80L, and C118S) containing a C-terminal avi-tag was obtained by gene synthesis (GeneArt, Thermo Fisher) in donor vector (pDONR-221) and transferred by recombinant cloning into pDEST17 vector bearing an N-terminal His6-tag. The protein was expressed in E. coli and the purified protein was biotinylated with the E. coli biotin ligase (BirA) before usage. • GDP (Sigma Cat No G7127) • AlphaLISA Glutathione Acceptor Beads (PerkinElmer, Cat No AL109) • AlphaScreen Streptavidin Donor Beads (PerkinElmer Cat No 6760002) • Assay plates: Proxiplate-384 PLUS, white (PerkinElmer, Cat No 6008289)
Assay Buffer: • 1×PBS • 0.1% BSA • 0.05% Tween 20
7.5 nM (final assay concentration) KRAS G12C, 10 μM (final assay concentration) GDP and 5 nM (final assay concentration) GST-SOS1 are mixed in assay buffer prior to use and kept at room temperature.
AlphaLISA Glutathione Acceptor Beads and AlphaScreen Streptavidin Donor Beads are mixed in assay buffer at a concentration of 10 μg/mL (final assay concentration) each prior to use and kept at room temperature.
Compounds are diluted to a final start concentration of 100 μM and are tested in duplicate. Assay-ready plates (ARPs) are generated using an Access Labcyte Workstation with a Labcyte Echo 550 or 555 accoustic dispenser. For compound a start concentration of 100 μM, 150 nL of compound solution is transferred per well in 11 concentrations in duplicate with serial 1:5 dilutions.
The assay is run using a fully automated robotic system in a darkened room below 100 Lux. 10 μL of KRAS::SOS1 GDP mix is added into columns 1-24 to the 150 nL of compound solution (final dilution in the assay 1:100, final DMSO concentration 1%).
After 30 minutes incubation time 5 μL of bead mix is added into columns 1-23. Plates are kept at room temperature in a darkened incubator. After further 60 minutes incubation, the signal is measured using a PerkinElmer Envision HTS Multilabel Reader using the AlphaScreen specifications from PerkinElmer. Each plate contains the following controls: • diluted DMSO+KRAS::SOS1 GDP mix+bead mix • diluted DMSO+KRAS::SOS1 GDP mix
IC50 values are calculated and analyzed using a 4 parametric logistic model.
Tables of example compounds disclosed herein contain IC50 values determined using the above assay.

MiaPaCa-2 cells = assay: MiaPaCa-2 CTG proliferation assay (pancreatic cancer); format: cell-based; settings: Homo sapiens, MIA PaCa-2, 120 h; MiaPaCa-2 CTG proliferation, 5 days; read-out: IC50 MiaPACA2
Method: MiaPaCa-2 CTG Proliferation Assay (Pancreatic Cancer)
MiaPaCa-2 cells (ATCC® CRM-CRL-1420™) were grown in cell culture flasks (175 cm^2) using DMEM medium supplemented with 10% fetal bovine serum. […] Materials used for the assay were CulturPlate-384, White Opaque 384-well microplate, Sterile and Tissue Culture Treated (Perkin Elmer #6007680), DMEM medium and FBS # SH30071.03 (HyClone).
The proliferation assays started (day1) with seeding cells in flat bottom 384 well microtiter plates in 90 μL DMEM medium supplemented with 10% FBS at a density of 500 cells/well. Any other luminescence compatible plate format is possible. On day 2, 10 μL dilutions of the test compounds covering a concentration range between app. 0, 1 and 10.000 nM were added to the cells. Cells were incubated for 5 days in a humidified, incubator with 5% CO2 at 37° C. On day 7 100 μl of Cell Titer Glow reagent (Cell titer Glo Luminescent Cat. No. G7571, Promega) were added to each well and incubated for additional 10 min at room temperature (with agitation). Luminescence was measured on a Wallac Victor using standard luminescence read out. IC50 values were calculated using standard Levenburg Marquard algorithms (GraphPad Prism).

[2] = tested on: ERK phosphorylation in NCI-H358_Cas9_SOS2; assay: ERK phosphorylation assay 2 (AlphaLISA SureFire Ultra p-ERK1/2), SOS2 knock-out; format: cell-based; settings: Homo sapiens, NCI-H358; assay 2 (marked with *); read-out: IC50 H358 pERK
Description: ERK Phosphorylation Assay
Materials Used for the Assay;

[3] = Plasma protein binding (equilibrium dialysis), serum 10% FCS in PBS; format: in vitro ADME; settings: bovine, 10% FCS in PBS (serum), read-out: PPB 10% FCS fu
Method: (§1) Plasma Protein Binding (PPB)
(§2) Binding of test compound to plasma was determined using equilibrium dialysis (ED) and quantitative mass spectrometry interfaced with liquid chromatography (LC-MS). In brief, ED was performed with dialysis devices consisting of two chambers separated by a semipermeable membrane with a molecular weight cut-off of 5-10 kg/mol. One chamber was filled with commercially sourced plasma (mouse and human plasma, respectively) or serum (10% FCS in PBS) containing 1-10 μmol/L test compound and the other chamber was filled with phosphate-buffer saline (PBS) with or without dextran. The dialysis chamber was incubated for 3-5 hours at 37° C. After incubation, protein was precipitated from aliquots of each chamber and the concentration of test compound in the supernatant of the plasma-containing compartment (cplasma) and of the buffer-containing compartment (Cbuffer) was determined by LC-MS. The fraction of unbound test compound (not bound to plasma) (fu) was calculated according to the following equation: […]

[4] = Plasma protein binding (equilibrium dialysis), mouse plasma; format: in vitro ADME; settings: read-out: PPB mouse fu
Method: as §1, §2

T1 sequence (P01116 1-169 isoform P01116-2 G12C/C51S/C80L/C118S): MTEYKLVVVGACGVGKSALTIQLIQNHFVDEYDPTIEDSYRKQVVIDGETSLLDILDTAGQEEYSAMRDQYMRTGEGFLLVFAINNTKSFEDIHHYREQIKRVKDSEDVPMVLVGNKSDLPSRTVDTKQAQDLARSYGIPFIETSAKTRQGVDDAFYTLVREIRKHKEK

SMILES | IC50 (NCI-H358 cells) | IC50 [1] | IC50 (MiaPaCa-2 cells) | IC50 [2] | fraction unbound [3] | fraction unbound [4]
C=CC(=O)N1CCN(c2cc(O[C@@H](C)[C@@H]3CCCN3C)nc(-c3cc([C@@]4(C)CCCc5sc(N)c(C#N)c54)no3)n2)CC12CC2 [Ic-3] | 24.3 nM | 3 nM | 123 nM | 12.3 nM | 0.109 | 
C=CC(=O)N1CCN(c2cc(O[C@@H](C)[C@@H]3CCCN3C)nc(-c3cc([C@@]4(C)CCCc5sc(N)c(C#N)c54)on3)n2)CC12CC2 [Ib-5] | 9.68 nM | 3 nM | 28 nM | 6.7 nM | 0.058 | 0.004
C=C(F)C(=O)N1CCN(c2cc(O[C@@H](C)[C@@H]3CCCN3C)nc(-c3cc([C@@]4(C)CCCc5sc(N)c(C#N)c54)on3)n2)[C@H](C)C1 [Ib-10] | 40.6 nM | 13 nM | 56.8 nM | 32.8 nM | 0.063 | 0.005
C=CC(=O)N1CCN(c2cc(O[C@@H](C)[C@@H]3CCCN3C)nc(-c3cc([C@@]4(C)CCCc5sc(N)c(C#N)c54)sn3)n2)CC12CC2 [Id-5] | 5.98 nM | 1.7 nM | 26.9 nM | 3.1 nM | 0.338 | 0.003
C=C(F)C(=O)N1[C@@H](C)CN(c2cc(O[C@@H](C)[C@@H]3CCCN3C)nc(-c3cc([C@@]4(C)CCCc5sc(N)c(C#N)c54)no3)n2)C[C@@H]1C [Ic-8] | 93.5 nM | 41 nM | 396 nM | 134 nM | 0.078 | 0.003
C=C(F)C(=O)N1[C@@H](C)CN(c2cc(O[C@@H](C)[C@@H]3CCCN3C)nc(-c3cc([C@@]4(C)CCCc5sc(N)c(C#N)c54)on3)n2)C[C@@H]1C [Ib-11] | 34.6 nM | 15 nM | 105 nM | 44.4 nM | 0.045 | 0.003
C=CC(=O)N1CCC(Oc2cc(O[C@@H](C)[C@@H]3CCCN3C)nc(-c3cc([C@@]4(C)CCCc5sc(N)c(C#N)c54)sn3)n2)CC1 [Id-6] | 0.93 nM | 1.6 nM | 13.8 nM | 1.1 nM | 0.521 | 0.003
C=CC(=O)N1[C@@H](C)CN(c2cc(O[C@@H](C)[C@@H]3CCCN3C)nc(-c3cc([C@@]4(C)CCCc5sc(N)c(C#N)c54)no3)n2)C[C@@H]1C [Ic-4] | 2.49 nM | 1.9 nM | 6.87 nM | 3.4 nM | 0.083 | 0.011
C=CC(=O)N1[C@@H](C)CN(c2cc(O[C@@H](C)[C@@H]3CCCN3C)nc(-c3cc([C@@]4(C)CCCc5sc(N)c(C#N)c54)sn3)n2)C[C@@H]1C [Id-4] | 1.09 nM | 1.7 nM | 15.3 nM | 2.2 nM | 0.371 | 0.005
C=CC(=O)N1CCN(c2cc(O[C@@H](C)[C@@H]3CCCN3C)nc(-c3cc(C4(C)CCCc5sc(N)c(C#N)c54)on3)n2)CC1 (some centres unmarked) [Ib-6] | 1.67 nM | 3 nM | 9 nM | 2 nM | 0.167 | 0.014
C=CC(=O)N1CCN(c2cc(O[C@@H](C)[C@@H]3CCCN3C)nc(-c3cc([C@@]4(C)CCCc5sc(N)c(C#N)c54)on3)n2)[C@H](C)C1 [Ib-1] | 1.87 nM | 1.6 nM | 22.6 nM | 1.7 nM | 0.075 | 0.011
C=CC(=O)N1CCC(Oc2cc(N3CCN(C)C[C@@H]3C)nc(-c3cc(C4(C)CCCc5sc(N)c(C#N)c54)no3)n2)CC1 (some centres unmarked) [Ic-7] | 76.8 nM | 44 nM | 332 nM | 56.8 nM | 0.252 | 0.001
COC/C=C/C(=O)N1CCN(c2cc(O[C@@H](C)[C@@H]3CCCN3C)nc(-c3cc([C@@]4(C)CCCc5sc(N)c(C#N)c54)on3)n2)[C@H](C)C1 [Ib-14] | 19.1 nM | 6 nM | 36 nM | 12.6 nM | 0.066 | 0.01
C=CC(=O)N1[C@H](C)CN(c2cc(O[C@@H](C)[C@@H]3CCCN3C)nc(-c3cc([C@@]4(C)CCCc5sc(N)c(C#N)c54)sn3)n2)C[C@@H]1C [Id-2] | 2.57 nM | 1.6 nM | 21.3 nM | 5.4 nM | 0.434 | 0.003
C=CC(=O)N1[C@@H](C)CN(c2cc(O[C@@H](C)[C@@H]3CCCN3C)nc(-c3cc([C@@]4(C)CCCc5sc(N)c(C#N)c54)on3)n2)C[C@@H]1C [Ib-4] | 0.55 nM | 1.6 nM | 20.1 nM | 2.4 nM | 0.055 | 0.007
C=CC(=O)N1CCN(c2cc(O[C@@H](C)[C@@H]3CCCN3C)nc(-c3cc([C@@]4(C)CCCc5sc(N)c(C#N)c54)sn3)n2)CC1 [Id-1] | 0.44 nM | 1.6 nM | 2.25 nM | 0.7 nM | 0.476 | 0.021
COC/C=C/C(=O)N1CCN(c2cc(O[C@@H](C)[C@@H]3CCCN3C)nc(-c3cc(C4(C)CCCc5sc(N)c(C#N)c54)no3)n2)CC1 (some centres unmarked) [Ic-9] | 169 nM | 29 nM | 332 nM | 46.2 nM | 0.259 | 0.008
